# Results from ChEMBL document CHEMBL1146532, “Seco-prezizaane-type sesquiterpenes and an abietane-type diterpene from Illicium minwanense” (J Nat Prod, 2003).
# Active and inactive are the calls of the source. No cut-off for these calls is given here.
# Tested on: Cortical neurone
# Assay: Induction of neurite outgrowth in rat cortical neurons at 10 uM after 4 days
row,Compound,Activity
1,C[C@@H]1C[C@H](O)[C@@]23O[C@@]4(O)C[C@@]12CC(=O)OC[C@@]3(C)[C@H]4C (relative stereo),inactive
2,C[C@@H]1C[C@H](O)[C@@]2(O)[C@]13CC(=O)O[C@H](C3)[C@@H](C)[C@@]2(C)CO,inactive
3,C[C@@H]1C[C@H](O)[C@@]2(O)[C@]13CC(=O)OC[C@@]2(C)[C@H](C)C(=O)C3,inactive
4,C[C@@H]1CC(=O)[C@@]2(O)[C@]13CC(=O)OC[C@@]2(C)[C@@](C)(O)C(=O)C3,inactive
5,C[C@@H]1[C@H](O)[C@H](O)[C@@]2(O)[C@]13CC(=O)OC[C@@]2(C)[C@H](C)C(=O)C3,inactive
6,C[C@@H]1C[C@H](O)[C@@]2(O)[C@]13CC(=O)OC[C@@]2(C)[C@@](C)(O)C(=O)C3,inactive
7,C[C@@H]1C(=O)C=C2[C@]13CC(=O)O[C@H](C3)[C@@H](C)[C@@]2(C)CO (relative stereo),inactive
8,C[C@@H]1C(=O)C[C@]23CC(=O)OC[C@]1(C)[C@@]2(O)[C@@H](O)C[C@]3(C)O,inactive
9,C[C@@H]1[C@H](O)C[C@]23OC(=O)C[C@]12C[C@]1(O)OC[C@]3(C)[C@@H]1C,inactive
10,C[C@]12COC(=O)C[C@@]3(CC(=O)[C@]1(C)O)[C@]2(O)[C@@H](O)C[C@]3(C)O,inactive
11,CO[C@@]12C[C@]34CC(=O)O[C@]3(C[C@@H](O)[C@H]4C)[C@](C)(CO1)[C@@H]2C,inactive
12,C[C@]12COC(=O)C[C@@]3(CC(=O)[C@]1(C)O)[C@]2(O)CC[C@]3(C)O,inactive
13,C[C@@H]1[C@H]2C[C@]3(CC(=O)O2)C(=CC(=O)[C@@H]3C)[C@]1(C)CO (relative stereo),inactive
